Experiments:
[1] = molecular target: T1, VHL (VCB protein) (Homo sapiens, UniProt P40337); experiment: Fluorescence polarization competitive binding assay, binary binding; details: compound alone; displacement of HIF-1a peptide probe; read-out: binary affinity to VHL Kd
T1 construct: N-terminally Hiss-tagged VHL (54-213); His6 (N, cleaved yes); made in house; host or cells: E. coli
Description: Protein Expression and Purification. […] The complex was further purified by anion exchange followed by gel filtration chromatography.
Fluorescence Polarization Binding Assay. […] All components were dissolved from stock solutions using 100 mM Bis-Tris propane, 100 mM NaCl, 1 mM DTT, pH 7.0, to yield a final assay volume of 15 μL. DMSO was added as appropriate to ensure a final concentration of 2% v/v. […] Percentage displacement values were obtained by normalization of controls were plotted against Log[Compound]. IC50 values were determined for each titration using nonlinear regression analysis with Prism (v. 9.1.0, GraphPad). […] Cooperativity values (a) for each PROTAC were calculated using the ratio: α=binary Kd (−bromodomain)/ternary Kd (+bromodomain).

[2] = tested on: MV-4-11 cells; experiment: CellTiter-Glo cell viability assay, MV-4-11; assay type: cell-based, human; details: up to 10 μM; 24 h
Description: (§1) Cell Viability Assay. MV-4-11 cells were plated at a density of 2×10^4 cell per well of a 96 well white-bottom plate, and left to grow overnight in 50 μl of IMDM (Invitrogen, arlsebad, CA, USA) supplemented with 10% (v/v) Fetal bovine serum (FBS) (Thermo Fisher, Waltham, MA, USA) and 1% (v/v) penicillin/streptomycin (pen/strep) (#15140122, Thermo Fisher, Waltham, MA, USA) at 37° C., 5% CO2, and 95% humidity. […] These cells were then left to incubate at 37° C., 5% CO2, and 95% humidity for one day prior to undergoing spectrophotometric analysis. 22RV1 cells were plated at a density of 2×10^4 cell per well of a 96 well white-bottom plate, and left to grow overnight in 100 μL of RPMI-1640 (Invitrogen, Carlsebad, CA, USA) supplemented with 10% (v/v) fetal bovine serum (FBS) (Thermo Fisher, Waltham, MA, USA) and 1% (v/v) penicillin/streptomycin (pen/strep) (#15140122, Thermo Fisher, Waltham, MA, USA) at 37° C., 5% CO2, and 95% humidity. […] Plates were subjected to 2 mins on an orbital shaker to encourage lysis and left for a further 5 mins to reach peak luminescence. Luminescence was then recorded on a BMG Labtech PHERAstar luminescence plate reader with recommended settings. Data extracted from this analysis was analysed with Graphpad Prism (v. 8.2.0, GraphPad) and normalized to the DMSO vehicle control. […]

[3] = tested on: 22RV1 cells; experiment: CellTiter-Glo cell viability assay, 22RV1; assay type: cell-based, human; details: up to 10 μM; 48 h
Description: as §1

[4] = molecular target: T2, BRD4 (O60885), BromoTag N-term (Homo sapiens, UniProt O60885+P40337, L387A); experiment: Degradation of BromoTag'ed BRD4 by AGB1; assay type: cell-based
T2 construct: comprising residues 368-440 of human Brd4; expressed in transfected cells
Description: (§2) Degradation of a variety of target proteins. […] We performed CRISPR knock-in of the BromoTag, as described, into the endogenous loci of five additional proteins. […] The target proteins of Table 6 are all different, are all known to have different cellular roles and function, intracellular expression, and distinctive turnover rates within cells.

[5] = tested on: BromoTag-protein conjugates; experiment: Degradation of a variety of BromoTag'ed target proteins (summary); assay type: cell-based; details: treatment window of 100 nM-1 nM
Description: as §2

## CC[C@@H](C(=O)OCCOCCOCCOCC(=O)N[C@H](C(=O)N1C[C@H](O)C[C@H]1C(=O)NCc1ccc(-c2scnc2C)cc1)C(C)(C)C)[C@@H]1N=C(c2ccc(Cl)cc2)c2c(sc(C)c2C)-n2c(C)nnc21 (single isomer, unassigned) [AGB1 (46)]
[1]
  Kd: 125 nM
[2]
  cytotoxicity: lack of cytotoxicity
[3]
  cytotoxicity: lack of cytotoxicity
[4]
  Dmax: > 95%
[4]; BromoTag'ed BRD4, N-term tag
  pDC50: 7.9
[5]
  loss of total target protein: greater than 95%

From US20250130239A1, “PROTEIN DEGRADER” (University of Dundee, priority 2021, published 2025)
